Measurements reported in US20170275249A1, “SMALL LIPOPEPTIDOMIMETIC INHIBITORS OF GHRELIN O-ACYL TRANSFERASE” (THE REGENTS OF THE UNIVERSITY OF CALIFORNIA, priority 2014, published 2017).
Like-named read-outs stand apart in the source and are kept apart here. One block for each compound: values may come before it.

Legend:
[1] = tested on: GOAT/preproghrelin-expressing INS-1 cells; experiment: acyl ghrelin production in intact cells, Western immunoblot; type: cell-based; conditions: 18 hours incubation
Protocol: Molecular parameters for Compound 1 were well within those characteristics of orally bioavailable drugs. In INS-1 cell culture, compounds were administered to cultured INS-1 cells that had been engineered to express GOAT and preproghrelin. After incubating the cells in the presence of the compounds for 18 hours, the cells were lysed and ghrelin species (acyl ghrelin vs. total ghrelin) present in the lysates were quantified by Western immunoblot. […] Total ghrelin levels were unchanged irrespective of the inhibitor concentration that was present.

[2] = human
Protocol: (§1) (Taylor, M. S. et al., 2012, Methods in Enzymology 514:205-228.) For in vitro as well as in vivo pharmacokinetic analyses, inhibitor concentration was determined using LC/MS/MS.
(§2) GOAT inhibitor (Compound 1) and control (Compound 2) were added to liver S9 fractions or mouse plasma and the concentrations of each compound over time were quantified using LC/MS/MS.

mouse GOAT = molecular target: T1, mouse GOAT (Mus musculus, UniProt P0C7A3); experiment: ghrelin radio-octanoylation assay (Yang et al.), Sf9 membrane fractions; type: biochemical; conditions: for GOAT-inhibiting activity in vitro: relative to Compound 1
T1 construct: made in house; host or cells: Sf9 insect cells (baculovirus), membrane fractions
T1 sequence (P0C7A3 1-435): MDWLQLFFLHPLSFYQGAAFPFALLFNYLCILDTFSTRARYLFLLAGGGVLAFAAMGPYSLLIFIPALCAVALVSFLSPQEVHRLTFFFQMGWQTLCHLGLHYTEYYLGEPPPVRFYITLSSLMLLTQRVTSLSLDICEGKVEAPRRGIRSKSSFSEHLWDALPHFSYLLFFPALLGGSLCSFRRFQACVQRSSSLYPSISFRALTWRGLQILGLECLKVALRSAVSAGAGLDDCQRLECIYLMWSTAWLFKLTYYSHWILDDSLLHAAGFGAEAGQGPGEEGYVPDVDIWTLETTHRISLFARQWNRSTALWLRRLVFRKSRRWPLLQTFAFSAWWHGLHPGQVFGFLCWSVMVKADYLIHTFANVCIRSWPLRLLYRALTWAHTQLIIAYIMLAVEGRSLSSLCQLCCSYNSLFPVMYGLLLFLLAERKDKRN
Protocol: In vitro activity was quantified using the octanoylation assay developed by Yang et al. (2008, Proc. Natl. Acad. Sci. USA 105:10750-10755). No pure or soluble form of GOAT that retains enzymatic activity is thus far available. Recombinant poly-His-tagged ghrelin was incubated with radiolabeled octanoyl CoA and membrane fractions isolated from Sf9 cells infected with a GOAT-encoding baculovirus. Recovery of acyl- and des-acyl ghrelin using a Ni^2+ affinity column was followed by scintillation counting to determine the extent of acyltransferase activity, which was reported as a percentage of control.
Thiosarcosine derived peptidomimetic Compound 1 (of Example 1.1) and truncated analog Compound 2 (of Example 1.2), which served as a negative control, were screened for GOAT-inhibiting activity using membrane fractions prepared from Sf9 cells infected with baculovirus encoding mouse GOAT as a source of the acyltransferase. The assay detected specific acyl transfer from tritiated octanoyl-CoA to recombinant His-tagged proghrelin.

[3] = mouse plasma
Protocol: as §1, §2

measured LogD = type: physicochemical
[4] = stability in liver S9 fractions (LC/MS/MS); conditions: human liver S9 fractions
Protocol: as §1, §2

[5] = stability in mouse plasma (LC/MS/MS)
Protocol: as §1, §2

oral bioavailability = type: in vivo
[6] = tested on: acyl ghrelin : total ghrelin ratio in serum; experiment: time course of serum acyl ghrelin after IP administration; type: in vivo; conditions: mice, 80 mg/kg IP, FIG. 3
Protocol: Compound 1 was administered intraperitoneally (IP) to mice (dosed at 80 mg/kg) at time zero and blood samples were collected at indicated timepoints (see FIG. 3). Serum acyl ghrelin: total ghrelin ratios were determined using ELISA with antibodies specific for acyl or des-acyl ghrelin. Inhibitor concentrations were determined using LC/MS/MS detection. […] Reappearance of acyl-ghrelin tracked with the time-dependent change in inhibitor concentration in plasma.

[7] = Table 1, inhibitory activity against GOAT, cells printed in nM

Compound: CCCCC1CC(C(=O)NC[C@H]2CCCN2C(=O)[C@@H](N)C(C)(C)C)C1.CCCCC1CC(C(=O)NC[C@H]2CCCN2C(=O)[C@@H](N)C(C)(C)C)C1.O=C(O)C(O)C(O)C(=O)O (stereo partly drawn) [Compound 2, (1s,3R)—N—(((R)-1-((S)-2-AMINO-3,3-DIMETHYLBUTANOYL)PYRROLIDIN-2-YL)METHYL)-3-BUTYLCYCLOBUTANECARBOXAMIDE HEMITARTRATE]
inhibition of acyl ghrelin biosynthesis ([1]; FIG. 4): inactive
Liver S9 t1/2 [2]: 2.08 h
GOAT-inhibiting activity in vitro (mouse GOAT): inactive
Plasma t1/2 [3]: 1.52 h

Compound: CCCC[C@H]1C[C@@H](C(=O)NCCN(C)C(=O)[C@@H](NC(=O)CN)C2CCCCC2)C1 [Entry 1]
IC50 (mouse GOAT; [7]): 2000 nM

Compound: CCCCC1CC(C(=O)NC[C@H]2CCCN2C(=O)[C@@H](N)C(C)(C)C)C1 (some centres unmarked) [Entry 2]
IC50 (mouse GOAT; [7]): > 3000 nM

Compound: CCCC[C@H]1C[C@@H](C(=O)NC[C@H]2CCCN2C(=O)[C@@H](NC(=N)CN)C2CCCCC2)C1 [Entry 7]
IC50 (mouse GOAT; [7]): > 3000 nM

Compound: CCCC[C@H]1C[C@@H](C(=O)NC[C@H]2CCCN2C(=O)[C@@H](N)C2CCCCC2)C1 [Entry 9]
IC50 (mouse GOAT; [7]): > 3000 nM

Compound: (1s,3R)-3-BUTYL-N—(((R)-1-((S)-3,3-DIMETHYL-2-(2-(METHYLAMINO)ETHANETHIOAMIDO)BUTANOYL)PYRROLIDIN-2-YL)METHYL)CYCLOBUTANE CARBOXAMIDE HEMITARTRATE [Compound 1]
concentration at which production of acyl ghrelin was inhibited ([1]; FIG. 4): greater than 1 μM
concentration at which production of acyl ghrelin was substantially completely blocked ([1]; FIG. 4): above 5 μM
total ghrelin levels ([1]; irrespective of inhibitor concentration): unchanged
Measured LogD (measured LogD): 1.71
Liver S9 t1/2 [4]: 2.03 h
metabolism by liver S9 fractions [4]: slowly metabolized
Plasma t1/2 [5]: >10.5 h
stability in mouse plasma [5]: stable
IC50 (mouse GOAT; FIG. 2, tritiated octanoyl-CoA, His-tagged proghrelin): ~30 nM
potency compared side-by-side with prior art GOAT inhibitors (mouse GOAT; FIG. 6, versus compounds 3, 4, 5 and 6): by far the most potent inhibitor of GOAT
oral bioavailability % F (oral bioavailability): 10-15%
time at which acyl-ghrelin recovered [6]: 3 h
acyl-ghrelin in circulation ([6]; within minutes): near undetectable levels

The remaining lines, values ahead:

IC50 (mouse GOAT; [7]): > 3000 nM
Compound: C=CCOC(=O)NCC(=S)N[C@H](C(=O)N1CCC[C@@H]1CNC(=S)C1CC(CCCC)C1)C(C)(C)C (some centres unmarked) [Entry 15]

IC50 (mouse GOAT; [7]): 200 nM
Compound: CCCC[C@H]1C[C@H](C(=S)NC[C@H]2CCCN2C(=O)[C@@H](NC(=S)CN)C(C)(C)C)C1 [Entry 16, (1s,3R)—N—(((R)-1-((S)-2-(2-AMINOETHANETHIOAMIDO)-3,3-DIMETHYLBUTANOYL)PYRROLIDIN-2-YL)METHYL)-3-BUTYLCYCLOBUTANECARBOTHIOAMIDE]

IC50 (mouse GOAT; [7]): 650 nM
Compound: CCCC[C@H]1C[C@@H](C(=S)NC[C@H]2CCCN2C(=O)[C@@H](NC(=O)CN)C2CCCCC2)C1 [Entry 20]

IC50 (mouse GOAT; [7]): 25 nM
Compound: CCCC[C@H]1C[C@H](C(=O)NC[C@H]2CCCN2C(=O)[C@@H](NC(=S)CN)C(C)(C)C)C1 [Entry 26]

GOAT-inhibiting activity in vitro (mouse GOAT): equally potent
Compound: CCCCC1CC(C(=S)NC[C@H]2CCCN2C(=O)[C@@H](NC(=S)CN)C(C)(C)C)C1 (stereo partly drawn) [inhibitor 10, (1s,3R)—N—(((R)-1-((S)-2-(2-AMINOETHANETHIOAMIDO)-3,3-DIMETHYLBUTANOYL)PYRROLIDIN-2-YL)METHYL)-3-BUTYLCYCLOBUTANECARBO-THIOAMIDE HEMITARTRATE]
